What was measured:
[1] = Inhibition of Hepatitis C virus genotype 1a NS3/4A protease activity using Ac-DE-Dap(QXL520)-EE-Abu-w-[COO]-ASC(5-FAMsp)-NH2 peptide substrate by FRET assay; set-up: species or system Hepatitis C virus subtype 1a
[2] = system: Hepatitis C virus; experiment: Antiviral activity against Hepatitis C virus genotype 1b by cell based assay; format: functional, organism-based, Hepacivirus hominis
[3] = system: Hepatitis C virus; experiment: Antiviral activity against Hepatitis C virus genotype 1a by cell based assay; format: functional, organism-based, Hepacivirus hominis; details: subtype 1a
[4] = Lipophilicity, log D of the compound; format: physicochemical; details: octanol/water
[5] = Absorption in Sprague-Dawley rat at 5 mg/kg, po; format: ADME, organism-based; set-up: dose 5 mg/kg, route oral; details: in vivo, read-out: Activity
[6] = Clearance in Sprague-Dawley rat at 1 mg/kg, iv; format: ADME, organism-based; set-up: dose 1 mg/kg, route intravenous; details: in vivo
[7] = Oral bioavailability in Sprague-Dawley rat at 5 mg/kg, po; format: ADME, organism-based; details: in vivo
[8] = AUC (0 to infinity) in Sprague-Dawley rat at 5 mg/kg, po; format: ADME, organism-based; set-up: dose 5 mg/kg, route oral, time infinity; details: plasma
[9] = Inhibition of Hepatitis C virus genotype 1a NS3/4A protease activity using (Ac-DE-D(EDANS)-EE-Abu-w-[COO]-AS-K(DABCYL)-NH2 peptide substrate by FRET assay; set-up: species or system Hepatitis C virus subtype 1a

Compound: C=C[C@@H]1C[C@]1(NC(=O)[C@@H]1C[C@@H](Oc2ncc(OC)c3ccc(Cl)cc23)CN1C(=O)[C@@H](NC(=O)Oc1ccc2c(c1)B(O)OC2)C(C)(C)C)C(=O)NS(=O)(=O)C1CC1
- IC50 [1]: 1.3 nM
- EC50 [2]: 23 nM
- EC50 [3]: 170 nM

Compound: C=C[C@@H]1C[C@]1(NC(=O)[C@@H]1C[C@@H](Oc2ncc(OC)c3ccc(Cl)cc23)CN1C(=O)[C@@H](NC(=O)Nc1ccc2c(c1)B(O)OC2)C(C)(C)C)C(=O)NS(=O)(=O)C1CC1
- IC50 [1]: 2.2 nM
- logD [4]: 4.5
- Fa [5]: 0.92%
- clearance [6]: 7.93 mL/min/kg
- EC50 [2]: 24 nM
- EC50 [3]: 160 nM
- bioavailability [7]: 0.42%
- AUC(0-inf) [8]: 41 ng·h/mL

Compound: C=C[C@@H]1C[C@]1(NC(=O)[C@@H]1C[C@@H](Oc2ncc(OC)c3ccc(Cl)cc23)CN1C(=O)[C@@H](NC(=O)c1ccc2c(c1)B(O)OC2)C(C)(C)C)C(=O)NS(=O)(=O)C1CC1
- EC50 [2]: 91 nM
- EC50 [3]: 290 nM
- IC50 [9]: 4.6 nM

Compound: C=C[C@@H]1C[C@]1(NC(=O)[C@@H]1C[C@@H](Oc2ncc(OC)c3ccc(Cl)cc23)CN1C(=O)[C@@H](NC(=O)NCc1ccc2c(c1)B(O)OC2)C(C)(C)C)C(=O)NS(=O)(=O)C1CC1
- EC50 [2]: 25 nM
- EC50 [3]: 130 nM
- IC50 [9]: 2 nM

Compound: C=C[C@@H]1C[C@]1(NC(=O)[C@@H]1C[C@@H](Oc2ncc(OC)c3ccc(Cl)cc23)CN1C(=O)[C@@H](NC(=O)Nc1cccc2c1B(O)OC2)C(C)(C)C)C(=O)NS(=O)(=O)C1CC1
- EC50 [2]: 38 nM
- EC50 [3]: 65 nM
- IC50 [9]: 16 nM

Compound: C=C[C@@H]1C[C@]1(NC(=O)[C@@H]1C[C@@H](Oc2ncc(OC)c3ccc(Cl)cc23)CN1C(=O)[C@@H](NC(=O)Nc1cccc2c1COB2O)C(C)(C)C)C(=O)NS(=O)(=O)C1CC1
- EC50 [2]: 81 nM
- EC50 [3]: 500 nM
- IC50 [9]: 4 nM

Compound: C=C[C@@H]1C[C@]1(NC(=O)[C@@H]1C[C@@H](Oc2ncc(OC)c3ccc(Cl)cc23)CN1C(=O)[C@@H](NC(=O)Nc1cc2c(cc1F)COB2O)C(C)(C)C)C(=O)NS(=O)(=O)C1CC1
- IC50 [1]: 1.7 nM
- EC50 [2]: 4.3 nM
- EC50 [3]: 31 nM

Compound: C=C[C@@H]1C[C@]1(NC(=O)[C@@H]1C[C@@H](Oc2ncc(OC)c3ccc(Cl)cc23)CN1C(=O)[C@@H](NC(=O)Nc1cc2c(cc1Cl)COB2O)C(C)(C)C)C(=O)NS(=O)(=O)C1CC1
- EC50 [2]: 34 nM
- EC50 [3]: 47 nM
- IC50 [9]: 1.3 nM

Compound: C=C[C@@H]1C[C@]1(NC(=O)[C@@H]1C[C@@H](Oc2ncc(OC)c3ccc(Cl)cc23)CN1C(=O)[C@@H](NC(=O)Nc1ccc2c(c1)B(O)OC2(C)C)C(C)(C)C)C(=O)NS(=O)(=O)C1CC1
- EC50 [2]: 130 nM
- EC50 [3]: 280 nM
- IC50 [9]: 26 nM

Compound: C=C[C@@H]1C[C@]1(NC(=O)[C@@H]1C[C@@H](Oc2ncc(OC)c3ccc(Cl)cc23)CN1C(=O)[C@@H](Nc1ccc2c(c1)B(O)OC2)C(C)(C)C)C(=O)NS(=O)(=O)C1CC1
- logD [4]: 4
- Fa [5]: 4.9%
- clearance [6]: 48.8 mL/min/kg
- EC50 [2]: 34 nM
- EC50 [3]: 110 nM
- bioavailability [7]: 4.3%
- AUC(0-inf) [8]: 75 ng·h/mL
- IC50 [9]: 4.5 nM

Compound: C=C[C@@H]1C[C@]1(NC(=O)[C@@H]1C[C@@H](OC(=O)N2Cc3cccc(F)c3C2)CN1C(=O)[C@@H](NC(=O)Nc1cc2c(cc1F)COB2O)C(C)(C)C)C(=O)NS(=O)(=O)C1CC1
- IC50 [1]: 1.1 nM
- EC50 [2]: 56 nM
- EC50 [3]: 360 nM

Compound: C=C[C@@H]1C[C@]1(NC(=O)[C@@H]1C[C@@H](Oc2cc(-c3nc(C(C)C)cs3)nc3c(C)c(OC)ccc23)CN1C(=O)[C@@H](NC(=O)Nc1cc2c(cc1F)COB2O)C(C)(C)C)C(=O)NS(=O)(=O)C1CC1
- EC50 [2]: 8.6 nM
- EC50 [3]: 8.1 nM
- IC50 [9]: 3.1 nM

Compound: C=C[C@@H]1C[C@]1(NC(=O)[C@@H]1C[C@@H](Oc2ncc(OC)c3ccc(Cl)cc23)CN1C(=O)C(Nc1ccc2c(c1)B(O)OC2)C(C)(C)C)C(=O)NS(=O)(=O)C1CC1 (single isomer, unassigned; diastereomer 2)
- IC50 [9]: 350 nM
